Experimental data from paper PMC5533763, “Two dopamine D2-like receptor genes from the silkworm (Bombyx mori) and their evolutionary history in metazoan” (Scientific Reports, 2017).

Molecular target: T1, BmDop2R2 (Bombyx mori, UniProt A0A2D1QSC3)
T1 construct: full-length ORF (536 residues printed; 1596 bp ORF, which would give about 531; 7 TM) in pcDNA3.1(+), HindIII/NotI, transfected HEK-293 cells; no tag mentioned; chromosome 18, nscaf 2901; tandem paralogue of BmDop2R1 (440 residues, lacks TM I-II)
T1 sequence (A0A2D1QSC3 1-536): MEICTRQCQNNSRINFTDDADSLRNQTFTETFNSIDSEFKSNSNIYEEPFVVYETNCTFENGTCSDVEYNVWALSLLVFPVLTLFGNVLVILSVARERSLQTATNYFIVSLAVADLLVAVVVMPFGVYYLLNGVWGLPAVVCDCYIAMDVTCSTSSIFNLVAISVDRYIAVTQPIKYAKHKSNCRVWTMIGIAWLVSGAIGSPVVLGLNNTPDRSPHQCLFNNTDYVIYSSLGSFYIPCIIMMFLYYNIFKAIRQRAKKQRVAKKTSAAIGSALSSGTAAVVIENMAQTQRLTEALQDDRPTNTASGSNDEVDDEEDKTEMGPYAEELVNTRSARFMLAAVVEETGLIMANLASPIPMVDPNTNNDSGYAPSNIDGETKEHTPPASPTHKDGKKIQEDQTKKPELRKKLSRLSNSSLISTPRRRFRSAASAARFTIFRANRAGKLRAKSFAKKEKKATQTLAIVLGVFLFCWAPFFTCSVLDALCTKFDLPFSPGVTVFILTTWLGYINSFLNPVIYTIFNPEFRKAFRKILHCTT
Assay: cAMP ELISA in transfected HEK-293 cells (inhibition of forskolin-stimulated cAMP)
Assay type: cell-based

Work on `NCCc1ccc(O)c(O)c1` [dopamine] yielded an EC50 of 0.657 µM.
